Reference: PubChem BioAssay (NCI)
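96-well plates; 48 h exposure; 5 concentrations. Endpoints by linear interpolation between flanking doses. Not reached: highest tested concentration assigned. Abbreviation: GI50, concentration required for 50% inhibition of growth. Definition used: TGI = concentration required for complete inhibition of growth.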

Legend:
Test in all cases: NCI-60 cell line screen, 48 h
CCRF-CEM leukemia = system: CCRF-CEM leukemia
HL-60(TB) leukemia = system: HL-60(TB) leukemia
HCC-2998 colon = system: HCC-2998 colon
OVCAR-4 ovarian = system: OVCAR-4 ovarian
MOLT-4 leukemia = system: MOLT-4 leukemia
PC-3 prostate = system: PC-3 prostate
LOX IMVI melanoma = system: LOX IMVI melanoma
SNB-19 CNS = system: SNB-19 CNS
IGROV1 ovarian = system: IGROV1 ovarian
MDA-MB-435 = system: MDA-MB-435

Structure (SMILES)	GI50 (CCRF-CEM leukemia)	TGI (CCRF-CEM leukemia)	GI50 (HL-60(TB) leukemia)	TGI (HL-60(TB) leukemia)	GI50 (HCC-2998 colon)	TGI (HCC-2998 colon)	GI50 (OVCAR-4 ovarian)	TGI (OVCAR-4 ovarian)	GI50 (MOLT-4 leukemia)	TGI (MOLT-4 leukemia)	GI50 (PC-3 prostate)	TGI (PC-3 prostate)	GI50 (LOX IMVI melanoma)	TGI (LOX IMVI melanoma)	GI50 (SNB-19 CNS)	TGI (SNB-19 CNS)	GI50 (IGROV1 ovarian)	TGI (IGROV1 ovarian)	GI50 (MDA-MB-435)	TGI (MDA-MB-435)
CCSc1ccc([C@@H]2[C@@H](O)C(=O)N2c2cc(OC)c(OC)c(OC)c2)cc1	< 0.0171 µM	> 100 µM	< 0.0134 µM	0.0367 µM	0.0489 µM	17.4 µM	0.0674 µM	75.8 µM	0.0384 µM	17.7 µM	0.0146 µM	79.7 µM	< 0.0147 µM	14.5 µM	< 0.01 µM	> 100 µM	0.0235 µM	66.2 µM	< 0.01 µM	< 0.0112 µM
C=CC(C)(C)n1cc(C2=C(O)C(=O)C(c3cn(C(C)(C)C=C)c4ccccc34)=C(O)C2=O)c2ccccc21		> 100 µM		> 31.5 µM		9.8 µM		6.92 µM		> 45.8 µM		7.13 µM		11.2 µM		7.38 µM		7.15 µM		14.7 µM
C=C1C(=O)OC2C1CCC(C)C1(O)C=CC(=O)C21C (stereo not given)		> 10 µM		9.5 µM		> 10 µM		> 10 µM		> 10 µM		> 10 µM		> 10 µM		> 10 µM		> 10 µM		> 10 µM
CCCC(=O)N[C@H]1CCc2cc(OC)c(OC)c(OC)c2-c2ccc(SC)c(=O)cc21		> 100 µM		< 0.01 µM		> 4.64 µM		> 100 µM		> 66.2 µM		> 100 µM		> 100 µM		> 94.6 µM		> 100 µM		< 0.01 µM
O=C(c1ccc2ccccc2c1)c1nc2cc(F)ccc2[n+]([O-])c1C(F)(F)F	22.5 µM	66.3 µM	6.68 µM	24.9 µM	15.8 µM	31.3 µM	18.7 µM	36.8 µM	22.9 µM	53.8 µM	20.1 µM	53.4 µM	13.8 µM	26.9 µM	19.4 µM	37.8 µM	8.36 µM	21.6 µM	15.2 µM	28.6 µM
CN(Cc1ccc(F)cc1)c1ccc(CO)c(Cl)c1	28.9 µM	> 100 µM	12.5 µM	54 µM	14.9 µM	57 µM	2.22 µM	19.7 µM	21.8 µM	69.3 µM	20.3 µM	> 68.3 µM	22.9 µM	> 68.9 µM	38.3 µM	> 100 µM	0.476 µM	3.47 µM	44.7 µM	> 100 µM
C/C(=C(/c1ccccc1)c1ccc(OCC(O)CNCCN2CCOCC2)cc1)c1ccccc1 (stereo not given)	3.48 µM	11.3 µM	1.95 µM	4.04 µM	1.93 µM	3.43 µM	3.82 µM	14.4 µM	2.13 µM	5.41 µM	2.78 µM	10.2 µM	1.72 µM	3.12 µM	4.77 µM	17.8 µM	3.97 µM	15 µM	1.67 µM	3.09 µM
c1ccc(-c2nc3n(c2-c2ccc4c(c2)OCO4)CCC3)nc1	7.63 µM	> 25 µM	2.56 µM	10.7 µM	10.4 µM	> 25 µM	2.41 µM	15.8 µM	6.63 µM	> 21.4 µM	6.75 µM	> 25 µM	7.46 µM	> 25 µM	8.74 µM	> 25 µM	7.37 µM	> 23.2 µM	8.8 µM	> 25 µM
